Series [1] deals with T1, NS5B from the BK strain (genotype 1b) (Hepatitis C virus genotype 1b, UniProt P26663).
T1 construct: NS5B from the BK strain (genotype 1b) is expressed in E. coli as a protein in which the 21 C-terminal amino acids are replaced; made in house; host or cells: E. coli
The series can be described thus: Hepatitis C polymerase inhibition, NS5B BK strain, 33P-GTP filter assay. Type of series: biochemical. The settings on record: NS5B BK strain. In a few lines: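 E. coli-expressed NS5B (BK, genotype 1b) with the 21 C-terminal residues replaced by a linker-His6 tag was preincubated with compound for 15 min at room temperature. It then extended a hairpin-primed heteropolymeric RNA (~3 nM, ~760 nt product) with α-[33P]-GTP for 2 h at 22–25° C. The reaction was stopped with EDTA, and incorporated label was counted on filters.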

Series [2] addresses BB7 (RNA-dependent RNA polymerase hepatitis C virus protein sequence derived from HCV replicon) (Hepatitis C virus genotype 1b, UniProt Q9WMX2). The series can be described thus: Hepatitis C polymerase inhibition, BB7 sequence. The format is biochemical. The following applies: Table 1B.

Where two headings read alike, the source gives them in different places.

A word on the IC50: it is the concentration that inhibits the measured activity by half. One may read the melting point as the temperature of the solid-liquid transition.

Sequence of BB7 (RNA-dependent RNA polymerase hepatitis C virus protein sequence derived from HCV replicon) (Q9WMX2 2420-3010): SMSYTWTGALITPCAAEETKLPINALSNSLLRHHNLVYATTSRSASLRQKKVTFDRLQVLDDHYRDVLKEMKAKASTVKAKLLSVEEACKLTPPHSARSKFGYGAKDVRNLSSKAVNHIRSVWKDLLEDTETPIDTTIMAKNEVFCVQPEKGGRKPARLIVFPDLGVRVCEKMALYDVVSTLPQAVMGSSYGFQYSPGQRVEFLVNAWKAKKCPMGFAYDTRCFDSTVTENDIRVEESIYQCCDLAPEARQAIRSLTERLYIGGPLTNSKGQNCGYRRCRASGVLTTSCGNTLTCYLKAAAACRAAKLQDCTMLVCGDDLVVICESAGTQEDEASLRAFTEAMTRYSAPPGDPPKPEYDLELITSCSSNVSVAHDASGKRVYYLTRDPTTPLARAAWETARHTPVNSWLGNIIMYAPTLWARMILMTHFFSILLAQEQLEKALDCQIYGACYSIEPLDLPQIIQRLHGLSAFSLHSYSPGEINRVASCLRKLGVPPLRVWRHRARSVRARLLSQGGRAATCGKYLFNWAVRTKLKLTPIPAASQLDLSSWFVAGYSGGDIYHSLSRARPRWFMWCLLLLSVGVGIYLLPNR
T1 sequence (P26663 2420-2989): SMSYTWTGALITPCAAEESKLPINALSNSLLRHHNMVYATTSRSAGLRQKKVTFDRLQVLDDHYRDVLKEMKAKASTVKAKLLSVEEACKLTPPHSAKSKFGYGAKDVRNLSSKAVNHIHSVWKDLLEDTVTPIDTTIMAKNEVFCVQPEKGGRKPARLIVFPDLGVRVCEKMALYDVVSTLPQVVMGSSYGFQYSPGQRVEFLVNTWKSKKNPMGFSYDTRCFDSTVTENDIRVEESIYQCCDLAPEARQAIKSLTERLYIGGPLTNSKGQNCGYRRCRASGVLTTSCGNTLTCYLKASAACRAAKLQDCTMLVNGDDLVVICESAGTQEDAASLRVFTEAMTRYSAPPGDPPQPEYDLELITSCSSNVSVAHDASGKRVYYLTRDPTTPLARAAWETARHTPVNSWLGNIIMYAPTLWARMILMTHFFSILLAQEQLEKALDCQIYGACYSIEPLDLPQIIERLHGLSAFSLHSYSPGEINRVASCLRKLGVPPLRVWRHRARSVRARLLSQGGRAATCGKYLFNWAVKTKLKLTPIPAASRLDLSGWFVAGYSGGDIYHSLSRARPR

In turn, `CCCC1(CC(=O)O)OCCc2c1[nH]c1c(F)ccc(C(=O)N3CCOCC3)c21` (stereo not drawn) [Example 225, [8-Fluoro-5-(morpholine-4-carbonyl)-1-propyl-1,3,4,9-tetrahydro-pyrano[3,4-b]indol-1-yl]-acetic Acid] returned a melting point of 98 to 100 °C. Also, the half-maximal inhibitory concentration (IC50) in series [1] (Table 1A, read-out: HCV pol BK IC50) was greater than 20000 nM.

On to `CCCC1(CC(=O)O)OCCc2c1[nH]c1c(C)c(OCc3ccccc3)cc(C#N)c21` (stereo not drawn) [Example 368, (7-benzyloxy-5-cyano-8-methyl-1-propyl-1,3,4,9-tetrahydro-pyrano[3,4-b]indol-1-yl)-acetic acid], for which the IC50 is 110 nM in series [1] (Table 1B, read-out: BK IC50) and 130 nM in series [2].

Consider `CCCC1(CC(=O)O)OCCc2c1[nH]c1c(C)c(OCCF)cc(C#N)c21` (stereo not drawn) [Example 369, [5-cyano-7-(2-fluoro-ethoxy)-8-methyl-1-propyl-1,3,4,9-tetrahydro-pyrano[3,4-b]indol-1-yl]acetic acid], for which the IC50 in series [1] (Table 1B, read-out: BK IC50) came to 4 nM; in series [2], 10 nM.

In the case of `CCCC1(CC(=O)O)OCCc2c1[nH]c1c(C)c(OCCCF)cc(C#N)c21` (stereo not drawn) [Example 370, [5-cyano-7-(3-fluoro-propoxy)-8-methyl-1-propyl-1,3,4,9-tetrahydro-pyrano[3,4-b]indol-1-yl]acetic acid], the IC50 in series [1] (Table 1B, read-out: BK IC50) was 40 nM; in series [2], 30 nM.

For the compound “(5-cyano-7-ethoxy-8-methyl-1-propyl-1,3,4,9-tetrahydro-pyrano[3,4-b]indol-1-yl)-acetic acid [Example 362]”, the IC50 worked out at 110 nM in series [1] (Table 1B, read-out: BK IC50) and 70 nM in series [2].

In the case of “(8-cyano-1-cyclobutyl-5-trifluoromethyl-1,3,4,9-tetrahydropyrano[3,4-b]indol-1-yl)acetic acid [Example 277]”, the IC50 in series [1] (Table 1B, read-out: BK IC50) stood at 2600 nM; in series [2], 6200 nM.

Take “(8-fluoro-5-nitro-1-propyl-1,3,4,9-tetrahydropyrano[3,4-b]indol-1-yl)carboxylic acid [Example 352]”: the concentration for half-maximal inhibition (IC50) in series [1] (Table 1B, read-out: BK IC50) was 900 nM; in series [2], 2800 nM.

For the compound “[5-cyano-1-(1-ethylethyl)-8-fluoro-1,3,4,9-tetrahydropyrano[3,4-b]indol-1-yl]acetic acid [Example 311]”, the IC50 in series [1] (Table 1B, read-out: BK IC50) was greater than 30000 nM; in series [2], greater than 30000 nM.

“[5-cyano-1-(1-ethylethyl)-8-methyl-1,3,4,9-tetrahydropyrano[3,4-b]indol-1-yl]acetic acid [Example 294]”: the half-inhibitory concentration (IC50) is greater than 30000 nM in series [1] (Table 1B, read-out: BK IC50) and greater than 30000 nM in series [2].
